Data as given in article PMC7922564, “Molecular Insights into an Antibiotic Enhancer Action of New Morpholine-Containing 5-Arylideneimidazolones in the Fight against MDR Bacteria” (International Journal of Molecular Sciences, 2021).
Values joined by “and” are separate entries in the source; they are usually repeats but may differ in a detail not shown here. Equal entries are not always repeated. Where two headings read alike, the source gives them in different places.

Legend:
[1] = test system: S. aureus ATCC 25923; assay: MIC determination (microdilution), S. aureus ATCC 25923; assay type: cell-based, Staphylococcus aureus; conditions: Staphylococcus aureus, ATCC25923, unstarred values of column MIC value/no precipitation; read-out: MIC value
Experimental: (§1) Determination of MIC values, i.e., intrinsic antibacterial activity, of products and antibiotics (oxacillin, ampicillin, vancomycin, ciprofloxacin, and erythromycin) in the presence and absence of compounds tested was conducted by the use of a standard 2-fold microdilution method in cation-adjusted Mueller Hinton broth following the Clinical and Laboratory Standards Institute (CLSI) guidelines. The MIC values were detected using an Infinite M200 pro Tecan microplate reader (Tecan® France, SA-Lyon, France). MIC determinations were conducted in 96-well microtiter plates and repeated 3–4 times.
(§2) Initially, MICs of a series of imidazolone derivatives were assessed against susceptible (reference) and MDR strains of staphylococci. Next, MIC values of the aforementioned antibiotics were determined in the absence and presence of imidazolone derivatives to assess the chemosensitizing effect of these compounds. […] 5-arylideneimidazolones and 5-arylidenethiazolones, which precipitated after addition to bacterial suspension in MH II medium, were tested at the highest concentrations at which precipitation was not observed. […] Antibacterial activity of compounds and antibiotics ampicillin, vancomycin, ciprofloxacin, and erythromycin was recorded as the lowest concentration of molecules able to inhibit bacterial growth after 18 h incubation at 37 °C. The incubation of bacterial strains exposed to oxacillin paired with compounds tested was conducted at 35 °C and extended to 24 h due to frequent occurrence of heterogeneity among MRSA strains. The results are presented as activity gain (A) parameter which was calculated as ratio of MIC of a certain antibiotic (MICAnt) to its MICAnt+Comp, observed in combination with a tested compound (7, 12–16, 19, or 20; Equation (1)). (1) A=(MICAnt/MICAnt+Comp)

[2] = test system: MRSA 19449; assay: MIC determination (microdilution), MRSA 19449; assay type: cell-based, Staphylococcus aureus; conditions: Staphylococcus aureus, MRSA, no precipitation
Experimental: as §1, §2

[3] = test system: K. aerogenes Ea-294, Ea-308 (devoid of AcrAB); assay: MIC of compounds, K. aerogenes Ea-294, Ea-308; assay type: cell-based; conditions: Klebsiella aerogenes, read-out: Minimal Inhibitory Concentration (MIC)
From the text: (§3) A subset of compounds, namely 7, 12–16, 19, 20, was also examined for the potential to increase the effectiveness of the antibiotics chloramphenicol, erythromycin, doxycycline, and the fluoroquinolone antibiotic norfloxacin, which all are substrates for AcrAB-TolC in K. aerogenes. In addition to strain Ea-289, the adjuvant-like effect of the compounds was investigated in strain CM-64, which also overexpresses the AcrAB-TolC efflux pump, although it has no changes in porin content, and in the Ea-289 derivatives, i.e., Ea-294 and Ea-308, which are devoid of AcrAB (Table S17, Supplementary).
as §1
(§4) MIC values of 5-arylideneimidazolone derivatives were determined following CLSI recommendations as in the methods described for S. aureus (Section 3.3.1).

[4] = test system: K. aerogenes Ea-289 (overexpression of AcrAB-TolC); assay: MIC of compounds, K. aerogenes Ea-289; assay type: cell-based; conditions: Klebsiella aerogenes
Experimental: At first, MIC values of compounds were determined (Table S15, Supplementary). Next, their abilities to reduce MICs of the AcrAB-TolC substrates doxycycline (a tetracycline-class antibiotic) and erythromycin were studied (Table S16, Supplementary). […]
as §1, §4

[5] = test system: K. aerogenes CM-64 (overexpression of AcrAB-TolC); assay: MIC of compounds, K. aerogenes CM-64; assay type: cell-based; conditions: Klebsiella aerogenes, read-out: Minimal Inhibitory Concentration (MIC)
From the text: as §3, §1, §4

[6] = test system: K. aerogenes Ea-294, Ea-308; assay: MIC reduction assay (antibiotic adjuvant), K. aerogenes Ea-294, Ea-308; assay type: cell-based, Klebsiella aerogenes; conditions: doxycycline, chloramphenicol, norfloxacin, erythromycin;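 note: compound at no more than one quarter of its own MIC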
From the text: as §3, §2, §4

[7] = test system: K. aerogenes Ea-289; assay: MIC reduction assay (antibiotic adjuvant), K. aerogenes Ea-289; assay type: cell-based, Klebsiella aerogenes;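 note: compound at no more than one quarter of its own MIC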
Experimental: At first, MIC values of compounds were determined (Table S15, Supplementary). Next, their abilities to reduce MICs of the AcrAB-TolC substrates doxycycline (a tetracycline-class antibiotic) and erythromycin were studied (Table S16, Supplementary).
as §3, §2, §4

[8] = test system: K. aerogenes CM-64; assay: MIC reduction assay (antibiotic adjuvant), K. aerogenes CM-64; assay type: cell-based, Klebsiella aerogenes; conditions: doxycycline, chloramphenicol, norfloxacin, erythromycin;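 note: compound at no more than one quarter of its own MIC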
From the text: as §3, §2, §4

[9] = test system: AcrAB-TolC efflux pump in K. aerogenes strain Ea-289; assay: Real-time efflux (RTE) assay, 1,2'-dNA extrusion; assay type: cell-based, Klebsiella aerogenes; conditions: compound 100 µM; IE=100% total inhibition of efflux
Experimental: Compounds 7, 12–16, 19, and 20 were also assessed for their EPI property in K. aerogenes strain Ea-289 with the use of a real-time efflux (RTE) assay. Results for compounds 16 and 20 were previously described. The experiment is based on the measurement of the extrusion of a fluorescent dye from bacterial cells overproducing efflux pump transporters in the presence and absence of compounds tested. The dye used in this assay, 1,2’ –dinaphthylamine (1,2’-dNA), is a substrate for the AcrAB-TolC efflux pump, and is strongly fluorescent upon incorporation into a phospholipid bilayer, although it is almost non-fluorescent in an aqueous solution [37, 38].
A likewise strong blocking efficacy (IE = 83 %) was also noticed for compound 12, while the lowest inhibitory effect was found for compound 13 (IE = 23 %).
The inhibitory activity of 5-arylideneimidazolone derivatives towards AcrAB-TolC mediated efflux of 1,2’-dNA was detected in K. aerogenes strain Ea-289 by using a real-time fluorometric method. In a first step, bacterial cells were loaded with the environment-sensitive fluorescent membrane probe, 1,2’-dNA, in the presence of the EPI carbonyl cyanide m-chlorophenylhydrazone (CCCP) which inactivated the pump by dissipating membrane potential. Next, compounds tested were added at the concentration of 100 µM and the efflux was energizing by automated injection of glucose at a dose of 50 µM. The fluorescence intensity was measured in a microplate reader (Tecan) with an excitation wavelength of λex = 370 nm and an emission wavelength of λem = 420 nm.

[10] = Water solubility (UV spectroscopy); assay type: physicochemical
From the text: Six representatives of 5-arylideneimidazolones (9–12, 15, 19) were chosen for the determination of water solubility. UV spectroscopy was used for the estimation of concentrations of compounds according to the method described earlier. Acquired UV absorbance, calculated means, and standard deviations for tested compounds are presented in Supplementary Table S18. Solubility results, presented in Table 6, point out that compounds from the same group (A or B, Table 1 and Table 2) with the two-ring aromatic moiety are more soluble than compounds with the fluorene motive (Group A: 9, 10, 11 vs. 12; Group B: 15 vs. 19). […] The most soluble of tested compounds was compound 15, which could be dissolved in water at a concentration of up to 205.502 mM/L.
Water solubility was obtained using UV spectroscopy method. Absorbance of tested solutions of compounds 9-12, 15, and 19, respectively in suitable dilution, in three repetitions as well as calculated arithmetic means, solubility and standard deviations are presented in Table S18. the solubility results […]
Table S18. Results of absorbance used for estimation of water solubility of tested compounds (9-12, 15, 19).
Abbreviations: A1, A2,and A3, UV absorbance in first, second, and third repetition; Amean, arithmetic mean of absorbance from three repetitions; s, standard deviation for absorbance; S, water solubility; SD – standard deviation for solubility. […]

[11] = Stability in acidic and basic conditions (TLC); assay type: physicochemical; conditions: 1 = stable
Experimental: Compounds 9–12, 15, and 19 were also tested for their stability in acidic and basic conditions. This assay was carried out for 48 h and samples were taken at six-time intervals (10 min, 1 h, 2 h, 3 h, 24 h, 48 h). Stability of the compounds was determined using the TLC method. […] In basic conditions, only compounds 10 and 15 were stable for 24 h. […] Results with details, including time of degradation of products obtained, are presented in the Supplementary (Tables S19 and S20). […]
VI. Stability in different pH conditions
Stability of chosen compounds (9-12, 15, and 19) were determined using the TLC method. Assays were performed in acidic and basic conditions and were carried out for 48 h. Samples were taken at six-time intervals (10 min., 1 h, 2 h, 3 h, 24 h, 48 h). […]
of spots observed on TLC, where 1 indicate that compound is stable (only TLC spot for proper compound was observed). Higher values point out how many products of degradation was observed, which can be calculating by subtracting one from number of spots.
Table S19. Results of chosen compounds (9-12, 15, 19) stability in acidic conditions.
Compound Number of TLC spots in defined time
Table S20. Results of chosen compounds (9-12, 15, 19) stability in basic conditions.

[12] = read-out: MIC value/no precipitation

SMILES: O=C1NC(N2CCOCC2)=N/C1=C\c1ccc(-c2ccccc2)cc1 [Compound 7]
- MIC [1]: 31.2 to 250 µM
- MIC [2]: 31.2 to 250 µM
- MIC [3]: 2000 µM
- MIC [4, 12]: > 250 µM
- MIC ([4]; read-out: Minimal Inhibitory Concentration (MIC)): > 2000 µM
- MIC [5]: > 2000 µM
- A (activity gain) [6]: 1
- A (activity gain) ([7]; doxycycline): 1
- A (activity gain) ([7]; doxycycline, chloramphenicol, norfloxacin, erythromycin): 1
- A (activity gain) ([7]; erythromycin): 1
- A (activity gain) [8]: 1
- Inhibition efficiency (IE) towards extrusion of 1,2'-dNA [9]: 59%

SMILES: NC1=N/C(=C\c2ccc(Oc3ccccc3)cc2)C(=O)N1CCCN1CCOCC1 [Compound 17]
- MIC [2]: 31.2 to 250 µM
- MIC [4, 12]: > 250 µM
- A (activity gain) ([7]; doxycycline): 1
- A (activity gain) ([7]; erythromycin): 1

SMILES: Cl.O=C1N=C(N2CCC(N3CCOCC3)CC2)N/C1=C\c1cccc2ccccc12 [Compound 11, (Z)-5-(Naphthalen-1-ylmethylene)-2-(4-Morpholinopiperidin-1-yl)-Imidazol-4(5H)-one Hydrochloride]
- MIC [1]: 31.2 to 250 µM
- MIC [2]: 31.2 to 250 µM
- MIC [4, 12]: > 250 µM
- A (activity gain) ([7]; doxycycline): 1
- A (activity gain) ([7]; erythromycin): 1
- solubility [10]: 20200 µg/mL and 47300 µM
- Number of TLC spots ([11]; acidic conditions, 10 min): 1
- Number of TLC spots ([11]; acidic conditions, 1 h): 1
- Number of TLC spots ([11]; acidic conditions, 2 h): 1
- Number of TLC spots ([11]; acidic conditions, 3 h): 1
- Number of TLC spots ([11]; acidic conditions, 24 h): 1
- Number of TLC spots ([11]; acidic conditions, 48 h): 2
- Number of TLC spots ([11]; basic conditions, 10 min): 1
- Number of TLC spots ([11]; basic conditions, 1 h): 2
- Number of TLC spots ([11]; basic conditions, 2 h): 2
- Number of TLC spots ([11]; basic conditions, 3 h): 2
- Number of TLC spots ([11]; basic conditions, 24 h): 2
- Number of TLC spots ([11]; basic conditions, 48 h): 2

SMILES: O=C1NC(N2CCC(N3CCOCC3)CC2)=N/C1=C\c1ccc(-c2ccccc2)cc1 [Compound 8]
- MIC [2]: 31.2 to 250 µM
- MIC [4, 12]: > 250 µM
- A (activity gain) ([7]; doxycycline): 1
- A (activity gain) ([7]; erythromycin): 1
